Results from patent US20250122174A1 (Shenzhen Yuanli Shenwan Innovative Medicine Co., Ltd., priority 2022, published 2025).
pIC50: −log10 of the molar value.

biological target: HPK1 (Homo sapiens (Human), UniProt Q92918); test: HPK1 Inhibition Assay (ADP-Glo kinase assay); format: biochemical; conditions: ATP 10 μM
Summary of the method: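 ADP-Glo luminescence read-out after 1 h room-temperature kinase reaction with 10 μM ATP and 0.1 μg/ml MBP. Recombinant human HPK1 at 7.5 ng/μl; buffer 40 mM Tris pH 7.5, 20 mM MgCl2. Compounds serially diluted 5-fold over 10 points from 10 mM DMSO stock.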

HPK1, sequence (Q92918 1-346 limits assumed): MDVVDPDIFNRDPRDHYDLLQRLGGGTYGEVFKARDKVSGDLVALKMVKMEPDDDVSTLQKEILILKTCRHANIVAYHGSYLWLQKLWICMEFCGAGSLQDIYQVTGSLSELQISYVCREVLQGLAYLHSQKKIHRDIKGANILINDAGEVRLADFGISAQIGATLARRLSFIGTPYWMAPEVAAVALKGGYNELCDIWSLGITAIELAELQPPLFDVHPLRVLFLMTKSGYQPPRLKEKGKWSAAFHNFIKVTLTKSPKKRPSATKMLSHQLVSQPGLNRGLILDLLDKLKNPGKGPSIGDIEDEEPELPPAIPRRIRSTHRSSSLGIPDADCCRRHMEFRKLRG

pIC50, > 7.00:
C[C@@H]1CN(c2c(NC(=O)c3ccc(=O)n(-c4c(F)cccc4F)n3)ccc3c2cnn3C(C)(C)C)C[C@@H]1N [Example 303, N-(4-((3R,4R)-3-amino-4-methylpyrrolidin-1-yl)-1-(tert-butyl)-1H-indazol-5-yl)-1-(2,6-difluorophenyl)-6-oxo-1,6-dihydropyridazine-3-carboxamide]
C[C@@H]1CN(c2c(NC(=O)c3ccc(=O)n(-c4c(F)cccc4F)n3)ccc3nn(C45CCC(CC4)CC5)cc23)C[C@@H]1N [Example 304, N-(4-((3R,4R)-3-amino-4-methylpyrrolidin-1-yl)-2-(bicyclo[2.2.2]octan-1-yl)-2H-indazol-5-yl)-1-(2,6-difluorophenyl)-6-oxo-1,6-dihydropyridazine-3-carboxamide]
C[C@@H]1CN(c2c(NC(=O)c3ccc(=O)n(-c4c(F)cccc4F)n3)ccc3nn(C45CC6CC(CC(C6)C4)C5)cc23)C[C@@H]1N [Example 305, N-(2-((3S,5S,7S)-adamantan-1-yl)-4-((3R,4R)-3-amino-4-methylpyrrolidin-1-yl)-2H-indazol-5-yl)-1-(2,6-difluorophenyl)-6-oxo-1,6-dihydropyridazine-3-carboxamide]
C[C@@H]1CN(c2c(NC(=O)c3ccc(=O)n(-c4c(F)cccc4F)n3)ccc3nn(C45CCC(CC4)C5)cc23)C[C@@H]1N [Example 306, N-(4-((3R,4R)-3-amino-4-methylpyrrolidin-1-yl)-2-(bicyclo[2.2.1]heptan-1-yl)-2H-indazol-5-yl)-1-(2,6-difluorophenyl)-6-oxo-1,6-dihydropyridazine-3-carboxamide]
C[C@@H]1CN(c2c(NC(=O)c3ccc(=O)n(-c4c(F)cccc4F)n3)ccc3nn(C4CC(F)(F)C4)cc23)C[C@@H]1N [Example 307, N-(4-((3R,4R)-3-amino-4-methylpyrrolidin-1-yl)-2-(3,3-difluorocyclobutyl)-2H-indazol-5-yl)-1-(2,6-difluorophenyl)-6-oxo-1,6-dihydropyridazine-3-carboxamide]
C[C@@H]1CN(c2c(NC(=O)c3ccc(=O)n(-c4c(F)cccc4F)n3)ccc3nn(C4CCN(C)CC4)cc23)C[C@@H]1N [Example 308, N-(4-((3R,4R)-3-amino-4-methylpyrrolidin-1-yl)-2-(1-methylpiperidin-4-yl)-2H-indazol-5-yl)-1-(2,6-difluorophenyl)-6-oxo-1,6-dihydropyridazine-3-carboxamide]
C[C@H]1CN(c2c(NC(=O)c3ccc(=O)n(-c4c(F)cccc4F)n3)ccc3nn(C4CC(F)(F)C4)cc23)C[C@@H]1N [Example 309, N-(4-((3R,4S)-3-amino-4-methylpyrrolidin-1-yl)-2-(3,3-difluorocyclobutyl)-2H-indazol-5-yl)-1-(2,6-difluorophenyl)-6-oxo-1,6-dihydropyridazine-3-carboxamide]
C[C@H]1CN(c2c(NC(=O)c3ccc(=O)n(-c4c(F)cccc4F)n3)ccc3nn(C4(C)CC4)cc23)C[C@@H]1N [Example 310, N-(4-((3R,4S)-3-amino-4-methylpyrrolidin-1-yl)-2-(1-methylcyclopropyl)-2H-indazol-5-yl)-1-(2,6-difluorophenyl)-6-oxo-1,6-dihydropyridazine-3-carboxamide]
CC1(n2cc3c(N4C[C@H](N)C5(CC5)C4)c(NC(=O)c4ccc(=O)n(-c5c(F)cccc5F)n4)ccc3n2)CC1 [Example 311, (R)-N-(4-(7-amino-5-azaspiro[2.4]heptan-5-yl)-2-(1-methylcyclopropyl)-2H-indazol-5-yl)-1-(2,6-difluorophenyl)-6-oxo-1,6-dihydropyridazine-3-carboxamide]
C[C@H]1CN(c2c(NC(=O)c3ccc(=O)n(-c4c(F)cccc4F)n3)ccc3nn(C45CCC(CC4)C5)cc23)C[C@@H]1N [Example 312, N-(4-((3R,4S)-3-amino-4-methylpyrrolidin-1-yl)-2-(bicyclo[2.2.1]heptan-1-yl)-2H-indazol-5-yl)-1-(2,6-difluorophenyl)-6-oxo-1,6-dihydropyridazine-3-carboxamide]
C[C@@H]1CN(c2c(NC(=O)c3ccc(=O)n(-c4c(F)cccc4F)n3)ccc3nn(C4(C(F)(F)F)CC4)cc23)C[C@@H]1N [Example 315, N-(4-((3R,4R)-3-amino-4-methylpyrrolidin-1-yl)-2-(1-(trifluoromethyl)cyclopropyl)-2H-indazol-5-yl)-1-(2,6-difluorophenyl)-6-oxo-1,6-dihydropyridazine-3-carboxamide]
C[C@@H]1CN(c2c(NC(=O)c3ccc(=O)n(-c4c(F)cccc4F)n3)ccc3nn(C45CC(C4)C5)cc23)C[C@@H]1N [Example 316, N-(4-((3R,4R)-3-amino-4-methylpyrrolidin-1-yl)-2-(bicyclo[1.1.1]pentan-1-yl)-2H-indazol-5-yl)-1-(2,6-difluorophenyl)-6-oxo-1,6-dihydropyridazine-3-carboxamide]
C[C@@H]1CN(c2c(NC(=O)c3ccc(=O)n(-c4c(F)cccc4F)n3)ccc3nn(C4(C)CCC4)cc23)C[C@@H]1N [Example 317, 1-(2,6-difluorophenyl)-N-{4-[(3R,4R)-3-amino-4-methyltetrahydro-1H-pyrrol-1-yl]-2-(methylcyclobutyl)indazol-5-yl}-6-oxo-1,2-diazine-3-carboxamide]
C[C@@H]1CN(c2c(NC(=O)c3ccc(=O)n(-c4c(F)cccc4F)n3)ccc3nn(C45CC(C)(C4)C5)cc23)C[C@@H]1N [Example 318, N-(4-((3R,4R)-3-amino-4-methylpyrrolidin-1-yl)-2-(3-methylbicyclo[1.1.1]pentan-1-yl)-2H-indazol-5-yl)-1-(2,6-difluorophenyl)-6-oxo-1,6-dihydropyridazine-3-carboxamide]
C[C@@H]1CN(c2c(NC(=O)c3ccc(=O)n(-c4c(F)cccc4F)n3)ccc3nn(C45CC(C(F)(F)F)(C4)C5)cc23)C[C@@H]1N [Example 319, N-(4-((3R,4R)-3-amino-4-methylpyrrolidin-1-yl)-2-(3-(trifluoromethyl)bicyclo[1.1.1]pentan-1-yl)-2H-indazol-5-yl)-1-(2,6-difluorophenyl)-6-oxo-1,6-dihydropyridazine-3-carboxamide]
C[C@H]1CN(c2c(NC(=O)c3ccc(=O)n(-c4c(F)cccc4F)n3)ccc3nn(C45CC(C4)C5)cc23)C[C@@H]1N [Example 320, N-(4-((3R,4S)-3-amino-4-methylpyrrolidin-1-yl)-2-(bicyclo[1.1.1]pentan-1-yl)-2H-indazol-5-yl)-1-(2,6-difluorophenyl)-6-oxo-1,6-dihydropyridazine-3-carboxamide]
C[C@H]1CN(c2c(NC(=O)c3ccc(=O)n(-c4c(F)cccc4F)n3)ccc3nn(C4(C)CCC4)cc23)C[C@@H]1N [Example 321, N-(4-((3R,4S)-3-amino-4-methylpyrrolidin-1-yl)-2-(1-methylcyclobutyl)-2H-indazol-5-yl)-1-(2,6-difluorophenyl)-6-oxo-1,6-dihydropyridazine-3-carboxamide]
